Results: patent US11160809B2, “NK1-antagonist combination and method for treating synucleinopathies” (priority 2017, dated 2021)
Read-outs that look alike come from different tables or passages of the source.

Tests used:
[1] = 5 mg/day of pramipexole, cited from earlier work
[2] = molecular target: alpha-synuclein in human neuroblastoma SH-SY5Y cells (Homo sapiens, UniProt P37840); conditions: cited from earlier work
[3] = system: dopaminergic neurons in a mouse PD model; conditions: cited from earlier work
[4] = molecular target: human wild-type alpha-synuclein (Homo sapiens, UniProt P37840); conditions: in vitro; by H2O2 plus cytochrome c; cited from earlier work
[5] = for MTD-1 (Pramipexole alone): Period 1
Procedure: The starting dose of pramipexole was 0.5 mg and the dose was increased daily by 0.5 mg increments.
When a subject reached FID-1 on pramipexole alone, the subject was washed out for at least 5 days, and then entered Period 2 of the study during which the subject received single daily oral doses of pramipexole starting at 0.5 mg and titrated upward by 0.5 mg increments, together with oral aprepitant (80 mg) until subjects again reached an intolerable dose defined as above. The FID on oral pramipexole plus oral aprepitant was referred to as FID-2.
If a subject reached FID-2 during Period 2 at the same or lower dose than FID-1, and providing the investigator judged there were no safety issues and the subject was consenting, the subject received the same dose of pramipexole as the FID-2 dose together with a higher dose of oral aprepitant (120 mg) on the next day and the protocol specified that said subject should continue with the remainder of the dose titration with the higher dose of oral aprepitant (120 mg) until they reach the intolerable dose (FID2+). All other provisions of the protocol remained unchanged. Assessments were the same as those planned for the dose escalation day.
In addition, a laboratory panel was taken at screening and at the end of the study.

[6] = doses approved for motor symptoms of PD; 535 PD patients; cited from earlier work
synuclein = synuclein (Homo sapiens, UniProt P37840); conditions: in vitro; cited from earlier work

CCCN[C@H]1CCc2nc(N)sc2C1 [Pramipexole, (S)-6-propylamino-4,5,6,7-tetrahydro-1,3-benzothiazole-2-amine]
Nausea [1]: 76 % of patients | Vomiting [1]: 39 % of patients | Patients not able to complete the study ([1]; presumably because of intolerable GI adverse events): 36 % of patients | Aggregation of alpha-synuclein [2]: inhibit the aggregation of alpha-synuclein | Toxic effects of rotenone on dopaminergic neurons ([3]; mouse PD model): inhibits the toxic effects of rotenone | Immunoreactivity for alpha-synuclein ([3]; rotenone mouse PD model): reducing immunoreactivity for alpha-synuclein | Oligomerization of human wild-type alpha-synuclein [4]: decreases the in vitro oligomerization | MTD-1 (Pramipexole alone) ([5]; Subject 1001): 2.0 mg | MTD-1 (Pramipexole alone) ([5]; Subject 1006, NA, not tolerated at 0.5 mg): NA (not tolerated | MTD-1 (Pramipexole alone) ([5]; Subject 1007): 4.0 mg | MTD-1 (Pramipexole alone) ([5]; Subject 1008): 1.0 mg | Reaching of FID-1 ([5]; human, in vivo): All subjects reached FID-1 | Dose limiting toxicity ([5]; in vivo): gastro-intestinal adverse events | Neuroprotective (disease modifying) activity [6]: failed to evidence neuroprotective (i.e., disease modifying) activity | Synuclein oligomer formation (synuclein): diminishes synuclein oligomer formation
